In patent US12251410B2, “Anticancer trail-targeted plant virus particles” (CASE WESTERN RESERVE UNIVERSITY, priority 2017, dated 2025):
“Also recorded” adds a separate entry of the source.

Experiments:
[1] = system: HCC-38 cell line (TNBC); assay: MTT cytotoxicity assay, HCC-38; assay type: cell-based; settings: 12 h incubation, normalized to TRAIL, GraphPad Prism
Description: (§1) Herein, a panel of triple negative breast cancer (TNBC) cell lines, MDA-MB-231, HCC-38, and BT-549, were used.
(§2) Triple negative breast cancer cell lines MDA-MB-231, HCC-38, and BT-549 cell lines (provided by Prof. Ruth Keri, Case Western Reserve University) and HER-2 amplified breast cancer cell line SK-BR-3 (ATCC). MDA-MB-231, HCC-38, BT-549, and SK-BR-3 were cultured in Dulbecco's modified Eagle's medium (DMEM) and Roswell Park Memorial Institute (RPMI) 1640 medium without or with insulin (0.023 IU/mL final concentration), and McCoy's 5A medium, respectively. All media were supplemented with 10% (v/v) fetal bovine serum (FBS) and 1% (v/v) penicillin/streptomycin. All cells were maintained at 37° C. and 5% CO2.
(§3) Cells (MDA-MB-231, HCC-38, BT-549, and SK-BR-3) were seeded at 5,000 cells per well in culture medium in 96-well plates 1 day prior to treatment. […] Samples were prepared in triplicate and each assay was performed at least twice. […] Following incubation, cells were washed with PBS, pH 7.4 and fresh medium was replenished; then 10 μL MTT reagent was added as per manufacturer's instructions. Absorbance was determined using the Tecan infinite-M200 plate reader.

[2] = system: caspase-3/7; assay: Caspase-Glo 3/7 assay in MDA-MB-231 cells; assay type: cell-based; settings: 20 ng/mL HisTRAIL, 3 h
Source text: (§4) TRAIL-DR4/5 receptor binding activates caspase-dependent apoptosis. Specifically, TRAIL-DR4/5 receptor binding induces receptor oligomerization, followed by the recruitment of FAS-associated protein with death domain (FADD) and pro-caspase-8 to form a functional death-inducing signaling complex (DISC) at the plasma membrane. Subsequently, caspase-8 is activated and released into the cytosol, where it cleaves and activates caspase-3 or -7 to execute the apoptosis in cancer cells (FIG. 4). […] The drugs were incubated with MDA-MB-231 cells for 3 h before adding reagents from Caspase-Glo 8 and Caspase-Glo 3/7 Assay Kit. The assay was performed as per manufacturer's instructions.
(§5) Determination of levels of activated caspase-8 and caspase-3/7 MDA-MB-231 cells were seeded at 5,000 cells per well in a white-walled 96-well luminometer microplate one day prior to treatment. […] Non-treated cells were used as control. Samples were prepared in triplicate. Caspase-Glo 8 assay kit and Caspase-Glo 3/7 assay kit (Promega) were used to determine the level of activated caspases. Briefly, the reagent causes cell lysis, followed by caspase cleavage of the substrate and aminoluciferin which produces a luminescent signal in the presence of luciferase and ATP from the kit. Luminescence was read by the Tecan infinite-M200 plate reader to determine the proportional activated level of caspase 8- and 3/7.

[3] = system: caspase-8; assay: Caspase-Glo 8 assay in MDA-MB-231 cells; assay type: cell-based; settings: 20 ng/mL HisTRAIL, 3 h
Source text: as §4, §5

[4] = system: SK-BR-3, HER2-amplified breast cancer cell line; assay: MTT cytotoxicity assay, SK-BR-3; assay type: cell-based; settings: HER-2 amplified breast cancer cell line
Description: Data are expressed as means±SD.
as §1, §2, §3

[5] = system: MDA-MB-231 triple negative breast cancer cell line; assay: MTT cytotoxicity assay, MDA-MB-231; assay type: cell-based; settings: 12 h incubation, normalized to TRAIL, GraphPad Prism
Description: as §1, §2, §3

[6] = system: BT-549 cell line (TNBC); assay: MTT cytotoxicity assay, BT-549; assay type: cell-based; settings: 12 h incubation, normalized to TRAIL, GraphPad Prism
Description: as §1, §2, §3

[7] = system: subcutaneous MDA-MB-231 tumors; assay: Treatment of MDA-MB-231 xenografts in athymic nude mice; assay type: in vivo, mouse
Description: FIGS. 3(A-C) are graphs and images illustrating treatment of MDA-MB-231 xenografts in an athymic nude mouse model. 6-week-old female NCR nu/nu mice were injected subcutaneously into the right flank with 2×10^6 cells; treatment began when tumor volume reached 100-150 mm^3, approximately 2 weeks after tumor cell inoculation. […] 20 μL PBS or corresponding particle amount of PVXNi were injected as controls. Tumor volume was normalized at the initial day. Data were expressed as expressed as means+SD. (A) Tumor growth curve during treatment. (B) Tumor volume distribution in each group during treatment. (C) Representative of isolated tumor tissues after treatment.
Treatment started when the tumor volume reached 100-150 mm^3. […] While we envision systemic administration for clinical applications, we started here by evaluating intratumoral treatments to focus on the question as to whether PVX-delivered HisTRAIL would outperform free HisTRAIL; the intratumoral treatment allows one to precisely control and match the dosing, and, thus, eliminates confounding factors from varying biodistribution. […]
The animal study was carried using an IACUC-approved protocol. […] Tumors were measured daily and the volume was calculated using the formula v=(l×w^2)/2, where l is the length and w is the width of tumor. […] All results are expressed as means±SD, calculated by GraphPad Prism. […]

[8] = background statement; cited from earlier work

Substance | IC50 values, HCC-38 [1] | caspase 3/7 increase vs. PBS controls [2] | level of caspase 8, increase compared to PBS control [3] | cell killing / apoptosis induction in SK-BR-3 [4] | IC50 values, MDA-MB-231 [5] | IC50 values, MDA-MB-231 ([5]; listed as HiTRAIL) | IC50 values, BT-549 [6] | average relative tumor volume increase vs. starting volume ([7]; day 30 post first treatment, intratumoral every 2 days, 5 μg His-TRAIL/injection (PVX-Ni at corresponding particle amount)) | tumor growth inhibition (in words) ([7]; intratumoral, athymic nude mice with MDA-MB-231 tumors, vs PBS control) | potency compared to cisplatin, carboplatin and oxalatoplatin [8]
HisTRAIL: Recombinant human TRAIL (aa 114-281) with N-terminal His-tag and thrombin cleavage sequence, expressed in ClearColi BL21(DE)3 | 0.3672 µg/mL | 1.5 fold | 1.38 fold | Neither PVX-HisTRAIL nor HisTRAIL did induce apoptosis; also recorded: did not show cell killing efficacy | 0.0866 µg/mL | 0.0868 µg/mL | 0.543 µg/mL | 2.53 fold | effective inhibition | –
phenanthriplatin | – | – | – | – | – | – | – | – | – | 40 ×
